# Patent US8962634B2, “4-amino-3-arylamino-6-arylpyrazolo[3,4-d) pyrimidine derivatives, methods for their preparation and their use as antiviral agents” (priority 2006, dated 2015)
# Read-outs that look alike come from different tables or passages of the source.
# How the values were obtained:
# [1] = Tolerance in the cell culture: cytotoxicity in HeLa cells (CC50); format: cell-based; conditions: human, repeated per virus line of the plaque reduction table, read-out: 50% zytotoxic concentration in HeLa cells (CC50)
# Protocol: (§1) 1×10^4 HeLa cells (DSMZ, ACC 57) were seeded per microtestplate cavity in 0.2 ml culture medium RPMI 1640. The microtiter plates were incubated without the test substance according to standard (at 37° C., 5% CO2 and ca. 95% relative humidity) for 48 hours under physiological conditions to produce subconfluent monolayers. Afterwards, dilution stages of the test substances were added to the monolayers and incubated under physiological conditions during a period of 72 h. At the end of the time of incubation, the extinction of all cavities of the microtiterplates were measured at 660 nm by means of a microplate reader (Sunrise, TECAN) after glutaraldehyd fixation and methylen-blue dye and the CC50 was determined by the analysis program “Magellan”. As the pre-incubation of the HeLa cells already leads to the formation of a subconfluent cell lawn, the cytolysis during the subsequent incubation with the test substance is decisive for the analysis. GMK cells were seemed in microtiter plates and preincubated at 5% CO2, 37° C. and with a humidity of 95% in the incubator during 48 h for producing a cell lawn (Schmidtke M et al.: J Virol Meth, 2001, 95(1-2), 133-143). Then, the medium was removed and the substances were deposited in different concentrations (100 μl/well/concentration, dilution factor 2) in the culture medium. 100 μl of the medium was used for each of the control value determinations (six untreated cell controls). 72 h after the substance application and incubation, the cells were dyed with crystal-violet/methanol. After the extraction of the dye, the optical density (OD) of the individual cavities were measured in a plate photometer of the Dynatech company (550/630 nm) and compared with the mean value of the cell controls. The mean value of the controls was assumed to be 100 %. By means of the mean dose effect curves the 50% cytotoxic concentrations (CC50) were measured by applying the linear interpolation method.
# HeLa cells = experiment: as above; format: cell-based; conditions: 72 h incubation
# Protocol: as §1
# GMK cells = experiment: Tolerance in the cell culture: cytotoxicity in GMK cells (CC50); format: cell-based; conditions: 72 h incubation
# Protocol: as §1
# [2] = system: coxsackievirus B3 Nancy (CVB3 Nancy); experiment: Cytopathic effect (cpE)-inhibition test in HeLa cells, CVB3 Nancy; format: cell-based; conditions: 24 h after infection; for IC50: Enterovirus B, read-out: 50% inhibition concentration CVB3 Nancy
# Protocol: (§2) Cytopathic effect (cpE)-inhibition test with the international reference strain coxsackievirus B3 Nancy (CVB3 Nancy), human rhinovirus 2 and 8 (HRV2 and […]) in HeLa cells
# (§3) The replication of the viruses used in the test leads to the complete destruction of the host cells, a strong cytophatic effect (cpE). […] In the test, untreated and substance-treated compact cell lawns were infected with a virus dose that leads to a complete cpE in the untreated virus controls 24 h (CVB3 Nancy) or 72 h (HRV2 and HRV8) after the infection. At this point in time, the still adherent cells were fixed and dyed with a crystal-violet/formalin solution. The inhibition of the virus-induced cpE was quantified photometrically in a Dynatach plate reader after dye elution. The antiviral effect was calculated by comparing the optical densities of the substance-treated and untreated, virus-infected cells with the mean optical density of the cell controls that was assumed to be 100%. By means of the mean dose effect curves the 50% inhibition concentration was determined. Pleconaril was used as a control substance.
# [3] = system: human rhinovirus 2 (HRV2); experiment: Cytopathic effect (cpE)-inhibition test in HeLa cells, HRV2; format: cell-based; conditions: for IC50: Rhinovirus A, read-out: 50% inhibition concentration HRV2
# Protocol: as §2, §3
# [4] = system: human rhinovirus 8 (HRV8); experiment: Cytopathic effect (cpE)-inhibition test in HeLa cells, HRV8; format: cell-based; conditions: for IC50: Rhinovirus A, read-out: 50% inhibition concentration HRV8
# Protocol: as §2, §3
# coxsackievirus B1 (CVB1) = experiment: Plaque reduction test (PRT) in HeLa cells, CVB1; format: cell-based
# Protocol: (§4) Plaque reduction test (PRT) with the substance of example 1 and coxsackievirus B1, B2, B4, B5, B6 (CVB1, CVB2, CVB4, CVB5, CVB6)
# (§5) For performing the test, 2-3-days-old compact HeLa cell lawns were infected in 12-well-tissue culture plates with 50-80 plaque-forming units (PFU) (Schmidtke M et al.: J Virol Meth, 2001, 95(1-2), 133-143). Two non-infected cavities of the plate were used as cell controls (CC). After a virus adsorption at 37° C. during one hour the virus-containing supernatant was soaked off. The infected cells were covered with a test medium containing 0.4% agar without (virus controls) or with substance in non-zytotoxic concentrations (dilution factor 2, double determination per concentration) and incubated at 37° C. during 48 h. After the fixation and dyeing of the plates with crystal-violet formalin, the agar was removed and rinsed in flowing water. The number of the virus-induced plaques was counted via a light box and afterwards the proportional substance-induced plaque reduction was calculated. Three identical test approaches were performed and the concentration that leads to a 50% plaque reduction (IC50) was measured by using the calculated mean dose-effect-curve.
# coxsackievirus B2 (CVB2) = experiment: Plaque reduction test (PRT) in HeLa cells, CVB2; format: cell-based
# Protocol: as §4, §5
# coxsackievirus B4 (CVB4) = experiment: Plaque reduction test (PRT) in HeLa cells, CVB4; format: cell-based
# Protocol: as §4, §5
# coxsackievirus B5 (CVB5) = experiment: Plaque reduction test (PRT) in HeLa cells, CVB5; format: cell-based
# Protocol: as §4, §5
# coxsackievirus B6 (CVB6) = experiment: Plaque reduction test (PRT) in HeLa cells, CVB6; format: cell-based
# Protocol: as §4, §5
# mice = experiment: Acute toxicity in the mouse, single oral administration; format: in vivo; conditions: for Number of dead/surviving mice: 5 mice; for substance concentration up to which all animals survived: administered orally once, mice; for tolerability after administering orally once: mouse, in vivo, po; for influence on general state of health, rectal temperature, body weight: up to 3.000 mg/kg orally once, three days observation
# Protocol: The acute toxicity of the substances of the examples 2 and 4 were determined in mice which were 4-5 weeks old (without strain designation). 1-2 drops TWIN-80 were added to a 1% aqueous carboxymethyl cellulose solution and this mixture was used to produce a substance suspension. 1500, 2000, 2500, 3000, 4000 or 5000 mg/kg of the substances of the examples 2 and 4 were administered orally to 5 mice, each amount once. On the following three days, the general state of health of the mice, the changes in their weight, their rectal temperatures and their survival rate were determined.
# [5] = cpE inhibition, HeLa cells, 72 h after infection
# [6] = HRV2, cpE inhibition, HeLa cells, 72 h after infection
# [7] = HRV8, cpE inhibition, HeLa cells, 72 h after infection
smiles,measurement,setting,value
"Nc1nc(-c2ccccc2)nc2[nH]nc(Nc3ccccc3)c12 [Example 1, 4-amino-3-phenylamino-6-phenylpyrazolo[3,4-d]pyrimidine]",CC50 at 72 h,[1],39.6 mg/L
same,50% cytotoxic concentration in HeLa cells,HeLa cells,39.6 µg/mL
same,50% cytotoxic concentration in GMK cells,GMK cells,>50 µg/mL
same,IC50,[2],0.002 mg/L
same,50% inhibition concentration HRV2,[3]; [5],ineffective
same,50% inhibition concentration HRV8,[4]; [5],ineffective
same,Selection index (SI) = CC50:IC50,coxsackievirus B1 (CVB1); CVB1,3.1
same,IC50,"coxsackievirus B1 (CVB1); Enterovirus B, HeLa, plaque reduction, CVB1, 48 h, read-out: 50% inhibition concentration in HeLa cells (IC50)",12.7 mg/L
same,Selection index (SI) = CC50:IC50,coxsackievirus B2 (CVB2); CVB2,132
same,IC50,"coxsackievirus B2 (CVB2); Enterovirus B, HeLa, plaque reduction, CVB2, 48 h, read-out: 50% inhibition concentration in HeLa cells (IC50)",0.3 mg/L
same,Selection index (SI) = CC50:IC50,coxsackievirus B4 (CVB4); CVB4,5.6
same,IC50,"coxsackievirus B4 (CVB4); Enterovirus B, HeLa, plaque reduction, CVB4, 48 h, read-out: 50% inhibition concentration in HeLa cells (IC50)",7.1 mg/L
same,Selection index (SI) = CC50:IC50,coxsackievirus B5 (CVB5); CVB5,14.1
same,IC50,"coxsackievirus B5 (CVB5); Enterovirus B, HeLa, plaque reduction, CVB5, 48 h, read-out: 50% inhibition concentration in HeLa cells (IC50)",2.8 mg/L
same,Selection index (SI) = CC50:IC50,coxsackievirus B6 (CVB6); CVB6,15.3
same,IC50,"coxsackievirus B6 (CVB6); Enterovirus B, HeLa, plaque reduction, CVB6, 48 h, read-out: 50% inhibition concentration in HeLa cells (IC50)",2.6 mg/L
"Nc1nc(-c2ccccc2)nc2[nH]nc(Nc3cccc(F)c3)c12 [Example 2, 4-amino-3-(3-fluorophenyl)amino-6-phenylpyrazolo[3,4-d]pyrimidine]",50% cytotoxic concentration in HeLa cells,HeLa cells,45.7 µg/mL
same,50% cytotoxic concentration in GMK cells,GMK cells,>50 µg/mL
same,IC50,[2],0.001 mg/L
same,IC50,[3]; [6],4.1 mg/L
same,IC50,[4]; [7],4.6 mg/L
same,Number of dead/surviving mice,mice; 1500 mg/kg orally once,0/5
same,Number of dead/surviving mice,mice; 2000 mg/kg orally once,0/5
same,Number of dead/surviving mice,mice; 2500 mg/kg orally once,0/5
same,Number of dead/surviving mice,mice; 3000 mg/kg orally once,0/5
same,Number of dead/surviving mice,mice; 4000 mg/kg orally once,3/5
same,Number of dead/surviving mice,mice; 5000 mg/kg orally once,5/5
same,substance concentration up to which all animals survived,mice,3.000 mg/kg
same,tolerability after administering orally once,mice,very tolerable
same,"influence on general state of health, rectal temperature, body weight",mice,Neither the general state of health nor the rectal temperature nor the body weight was influenced
"Cc1cccc(Nc2n[nH]c3nc(-c4ccccc4)nc(N)c23)c1 [Example 3, 4-amino-3-(3-methylphenyl)amino-6-phenylpyrazolo[3,4-d]pyrimidine]",50% cytotoxic concentration in HeLa cells,HeLa cells,27.7 µg/mL
same,IC50,[2],0.02 mg/L
same,IC50,[3]; [6],1.1 mg/L
same,IC50,[4]; [7],1 mg/L
same,melting point,,246 to 248 °C
"Cc1ccc(Nc2n[nH]c3nc(-c4ccccc4)nc(N)c23)cc1 [Example 4, 4-amino-3-(4-methylphenyl)amino-6-phenylpyrazolo[3,4-d]pyrimidine]",50% cytotoxic concentration in HeLa cells,HeLa cells,>50 µg/mL
same,50% cytotoxic concentration in GMK cells,GMK cells,>50 µg/mL
same,IC50,[2],0.08 mg/L
same,IC50,[3]; [6],1.8 mg/L
same,IC50,[4]; [7],2.2 mg/L
same,Number of dead/surviving mice,mice; 1500 mg/kg orally once,0/5
same,Number of dead/surviving mice,mice; 2000 mg/kg orally once,0/5
same,Number of dead/surviving mice,mice; 2500 mg/kg orally once,0/5
same,Number of dead/surviving mice,mice; 3000 mg/kg orally once,0/5
same,Number of dead/surviving mice,mice; 4000 mg/kg orally once,4/5
same,Number of dead/surviving mice,mice; 5000 mg/kg orally once,5/5
same,substance concentration up to which all animals survived,mice,3.000 mg/kg
same,tolerability after administering orally once,mice,very tolerable
same,"influence on general state of health, rectal temperature, body weight",mice,Neither the general state of health nor the rectal temperature nor the body weight was influenced
"Nc1nc(-c2ccccc2)nc2[nH]nc(Nc3ccc(Br)cc3)c12 [Example 5, 4-amino-3-(4-bromophenyl)amino-6-phenylpyrazolo[3,4-d]pyrimidine]",50% cytotoxic concentration in HeLa cells,HeLa cells,8.5 µg/mL
same,50% cytotoxic concentration in GMK cells,GMK cells,42.9 µg/mL
same,IC50,[2],0.04 mg/L
same,IC50,[3]; [6],0.7 mg/L
same,IC50,[4]; [7],1 mg/L
same,melting point,,272 to 274 °C
"Nc1nc(-c2ccccc2)nc2[nH]nc(Nc3ccc(F)cc3)c12 [Example 6, 4-amino-3-(4-fluorophenyl)amino-6-phenylpyrazolo[3,4-d]pyrimidine]",50% cytotoxic concentration in HeLa cells,HeLa cells,44.3 µg/mL
same,50% cytotoxic concentration in GMK cells,GMK cells,>50 µg/mL
same,IC50,[2],0.03 mg/L
same,IC50,[3]; [6],0.9 mg/L
same,IC50,[4]; [7],2 mg/L
same,melting point,,259 to 263 °C
"Cc1cc(CCCOc2c(C)cc(-c3noc(C(F)(F)F)n3)cc2C)on1 [Pleconaril, reference compound]",50% inhibition concentration CVB3 Nancy,[2],ineffective
same,IC50,"[3]; HRV2, HeLa, 72 h",0.01 mg/L
same,IC50,"[4]; HRV8, HeLa, 72 h",1.3 mg/L
